Reference: ChEMBL document CHEMBL5131471, “Design, synthesis and mechanism studies of novel dual PARP1/BRD4 inhibitors against pancreatic cancer” (Eur J Med Chem, 2022)
Active and inactive are the calls of the source.

What was measured:
SW1990 [1] = assay: Effect on MDC1 gene expression in human SW1990 cells at 4 uM by Q-PCR analysis; assay type: functional, cell-based
SW1990 [2] = assay: Effect on CCND1 gene expression in human SW1990 cells at 1 uM in presence of Olaparib by Q-PCR analysis; assay type: functional, cell-based
SW1990 [3] = assay: Effect on c-Myc gene expression in human SW1990 cells at 1 uM in presence of Olaparib by Q-PCR analysis; assay type: functional, cell-based
SW1990 [4] = assay: Effect on ALDH1A1 gene expression in human SW1990 cells at 1 uM in presence of Olaparib by Q-PCR analysis; assay type: functional, cell-based
SW1990 [5] = assay: Effect on CDK1 to 2 gene expression in human SW1990 cells at 1 uM in presence of Olaparib by Q-PCR analysis; assay type: functional, cell-based
SW1990 [6] = assay: Effect on BRCA1 gene expression in human SW1990 cells at 1 uM in presence of Olaparib by Q-PCR analysis; assay type: functional, cell-based
[7] = Toxicity in nude mouse xenografted with human SW1990 cells assessed as liver damage at 15 mg/kg, ip administered for 28 days in presence of 45 mg/kg Olaparib by H and E staining based fluorescence microscopic analysis; assay type: organism-based; conditions: in vivo, 672 h, time 28 day
SW1990 [8] = assay: Effect on FOXO1 gene expression in human SW1990 cells at 4 uM by Q-PCR analysis; assay type: functional, cell-based
SW1990 [9] = assay: Induction of cell cycle arrest in human SW1990 cells assessed as accumulation of cells at G2/M phase at 1 uM incubated for 4 days in presence of 3 uM Olaparib by propidium iodide staining based flow cytometry (reference value: 5.89%); assay type: functional; conditions: time 4 day
SW1990 [10] = assay: Induction of apoptosis in human SW1990 cells assessed as late apoptotic cells at 1 uM measured after 4 days in presence of 3 uM Olaparib by Annexin V-FITC and propidium iodide staining based flow cytometry (reference value: 7.23%); assay type: functional; conditions: time 4 day
SW1990 [11] = assay: Induction of DNA damage in human SW1990 cells assessed as increase in gammaH2AX expression at 1 uM incubated for 4 days in presence of Olaparib by DAPI staining based laser confocal microscopic analysis; assay type: functional, cell-based; conditions: time 4.0 day
SW1990 [12] = assay: Induction of apoptosis in human SW1990 cells assessed as early apoptotic cells at 1 uM measured after 4 days in presence of 3 uM Olaparib by Annexin V-FITC and propidium iodide staining based flow cytometry (reference value: 1.62%); assay type: functional; conditions: time 4 day
[13] = Toxicity in nude mouse xenografted with human SW1990 cells assessed as heart damage at 15 mg/kg, ip administered for 28 days by H and E staining based fluorescence microscopic analysis; assay type: organism-based; conditions: in vivo, 672 h, time 28 day
[14] = molecular target: Poly [ADP-ribose] polymerase 1 (Homo sapiens, UniProt P09874); assay: Inhibition of PARP1 (unknown origin) using biotinylated NAD+ as substrate by microplate reader method
Poly [ADP-ribose] polymerase 1, sequence (P09874 whole entry): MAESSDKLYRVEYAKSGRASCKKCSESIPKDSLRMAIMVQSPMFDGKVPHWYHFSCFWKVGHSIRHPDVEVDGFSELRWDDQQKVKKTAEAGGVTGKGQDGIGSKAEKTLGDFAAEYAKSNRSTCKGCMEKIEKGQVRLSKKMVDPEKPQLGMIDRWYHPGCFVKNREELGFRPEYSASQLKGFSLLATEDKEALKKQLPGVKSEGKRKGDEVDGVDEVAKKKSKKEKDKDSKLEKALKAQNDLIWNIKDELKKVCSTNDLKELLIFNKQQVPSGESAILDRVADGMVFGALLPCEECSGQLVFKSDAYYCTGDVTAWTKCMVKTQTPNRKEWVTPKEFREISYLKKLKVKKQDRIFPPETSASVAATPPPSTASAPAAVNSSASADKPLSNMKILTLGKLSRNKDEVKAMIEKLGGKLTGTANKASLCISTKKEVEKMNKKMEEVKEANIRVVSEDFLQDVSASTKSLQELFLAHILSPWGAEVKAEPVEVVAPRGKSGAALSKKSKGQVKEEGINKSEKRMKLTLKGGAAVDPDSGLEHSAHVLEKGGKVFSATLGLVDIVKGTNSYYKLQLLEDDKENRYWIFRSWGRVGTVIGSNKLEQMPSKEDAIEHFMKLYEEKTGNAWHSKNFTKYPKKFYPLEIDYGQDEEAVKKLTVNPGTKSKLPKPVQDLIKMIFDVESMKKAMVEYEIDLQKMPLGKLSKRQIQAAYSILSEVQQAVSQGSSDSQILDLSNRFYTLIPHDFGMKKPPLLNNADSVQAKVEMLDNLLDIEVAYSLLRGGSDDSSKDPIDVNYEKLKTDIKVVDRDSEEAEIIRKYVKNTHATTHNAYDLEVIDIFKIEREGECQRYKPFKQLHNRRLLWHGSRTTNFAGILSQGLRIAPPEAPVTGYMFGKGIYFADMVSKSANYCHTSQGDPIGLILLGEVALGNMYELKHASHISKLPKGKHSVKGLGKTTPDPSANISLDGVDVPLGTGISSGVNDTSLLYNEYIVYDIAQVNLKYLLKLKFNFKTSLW

SW1990 [15] = assay: Effect on c-Myc gene expression in human SW1990 cells at 1 to 2 uM by Q-PCR analysis; assay type: functional, cell-based; conditions: dose 1-2 µM
Mus musculus [16] = assay: Inhibition of PARP1 expression in nude mouse xenografted with human […] cells at 30 mg/kg, ip administered for 28 days by Western blot analysis; assay type: functional, organism-based; conditions: time 28.0 day
SW1990 [17] = assay: Inhibition of CDC25B protein expression in human SW1990 cells at 1 to 2 uM measured after 4 days by Western blot analysis; assay type: functional, cell-based; conditions: dose 1-2 µM, time 4.0 day
SW1990 [18] = assay: Downregulation of Ki67 expression in human SW1990 cells at 30 mg/kg, ip measured after 28 days by immuno histochemical staining based fluorescence microscopic analysis; assay type: functional, organism-based; conditions: time 28.0 day
SW1990 [19] = assay: Induction of DNA damage in human SW1990 cells assessed as increase in tail DNA at 1 to 2 uM incubated for 4 days by comet assay; assay type: functional, cell-based; conditions: dose 1-2 µM, time 4.0 day
Mus musculus [20] = assay: Inhibition of homologous recombinant repair in nude mouse xenografted with human SW1990 cells assessed as reversal of olaparib-induced TOPBP1 expression at 30 mg/kg, ip measured after 4 days by Western blot analysis; assay type: functional, organism-based; conditions: time 4.0 day
Mus musculus [21] = assay: Upregulation of E2F2 expression in nude mouse xenografted with human SW1990 cells at 45 mg/kg, ip measured after 4 days by Q-PCR analysis; assay type: functional, organism-based; conditions: time 4.0 day
SW1990 [22] = assay: Effect on FOXM1 gene expression in human SW1990 cells at 6 uM by Q-PCR analysis; assay type: functional, cell-based
[23] = Toxicity in nude mouse xenografted with human SW1990 cells assessed as lung damage at 45 mg/kg, ip administered for 28 days by H and E staining based fluorescence microscopic analysis; assay type: organism-based; conditions: in vivo, 672 h, time 28 day
Mus musculus [24] = assay: Upregulation of CDK1 expression in nude mouse xenografted with human SW1990 cells at 45 mg/kg, ip measured after 4 days by Western blot analysis; assay type: functional, organism-based; conditions: time 4.0 day
SW1990 [25] = assay: Induction of Rad51 accumulation in nucleus of human SW1990 cells at 6 uM measured after 4 days by Western blot analysis; assay type: functional, cell-based; conditions: time 4.0 day
SW1990 [26] = assay: Effect on CCND1 gene expression in human SW1990 cells at 6 uM by Q-PCR analysis; assay type: functional, cell-based
Mus musculus [27] = assay: Upregulation of CCNB1 expression in nude mouse xenografted with human SW1990 cells at 45 mg/kg, ip measured after 4 days by Western blot analysis; assay type: functional, organism-based; conditions: time 4.0 day
SW1990 [28] = assay: Upregulation of CDC25B expression in human SW1990 cells at 6 uM measured after 4 days by Western blot analysis; assay type: functional, cell-based; conditions: time 4.0 day

Cc1sc2c(c1C)C(c1ccc(Cl)cc1)=N[C@@H](CC(=O)OC(C)(C)C)c1nnc(C)n1-2
9.14%: Activity (SW1990 [9])
active: Activity (SW1990 [1]) | Activity (SW1990 [2]) | Activity (SW1990 [3]) | Activity (SW1990 [4]) | Activity (SW1990 [5]) | Activity (SW1990 [6]) | Activity (SW1990 [8]) | Activity (SW1990 [11])
3.07%: Activity (SW1990 [12])
34.5%: Activity (SW1990 [10])
Non-Toxic: Activity [7] | Activity [13]

Cc1noc(C)c1-c1ccc2c(c1)C(c1ccccc1)N(Cc1nc3c(C(N)=O)cccc3[nH]1)C(=O)N2C (stereo not drawn)
49 nM: IC50 [14]
active: Activity (SW1990 [15]) | inhibition (Mus musculus [16]) | inhibition (SW1990 [17]) | Activity (SW1990 [18]) | Activity (SW1990 [19]) | inhibition (Mus musculus [20])

O=C(c1cc(Cc2n[nH]c(=O)c3ccccc23)ccc1F)N1CCN(C(=O)C2CC2)CC1 [OLAPARIB]
Non-Toxic: Activity [23]
active: Activity (Mus musculus [21]) | Activity (SW1990 [22]) | Activity (Mus musculus [24]) | Activity (SW1990 [25]) | Activity (SW1990 [26]) | Activity (Mus musculus [27]) | Activity (SW1990 [28])
